Reference: ChEMBL document CHEMBL1153352 (Bioorg Med Chem Lett, 2009)
Converted amounts (≈) assume the structure as drawn.

Assays:
[1] = Solubility in water at pH 7.4; format: physicochemical
[2] = target: Hepatocyte growth factor receptor (Homo sapiens, UniProt P08581); test: Inhibition of GST-tagged human c-Met expressed in SF9 cells
Sequence of Hepatocyte growth factor receptor (P08581 whole entry): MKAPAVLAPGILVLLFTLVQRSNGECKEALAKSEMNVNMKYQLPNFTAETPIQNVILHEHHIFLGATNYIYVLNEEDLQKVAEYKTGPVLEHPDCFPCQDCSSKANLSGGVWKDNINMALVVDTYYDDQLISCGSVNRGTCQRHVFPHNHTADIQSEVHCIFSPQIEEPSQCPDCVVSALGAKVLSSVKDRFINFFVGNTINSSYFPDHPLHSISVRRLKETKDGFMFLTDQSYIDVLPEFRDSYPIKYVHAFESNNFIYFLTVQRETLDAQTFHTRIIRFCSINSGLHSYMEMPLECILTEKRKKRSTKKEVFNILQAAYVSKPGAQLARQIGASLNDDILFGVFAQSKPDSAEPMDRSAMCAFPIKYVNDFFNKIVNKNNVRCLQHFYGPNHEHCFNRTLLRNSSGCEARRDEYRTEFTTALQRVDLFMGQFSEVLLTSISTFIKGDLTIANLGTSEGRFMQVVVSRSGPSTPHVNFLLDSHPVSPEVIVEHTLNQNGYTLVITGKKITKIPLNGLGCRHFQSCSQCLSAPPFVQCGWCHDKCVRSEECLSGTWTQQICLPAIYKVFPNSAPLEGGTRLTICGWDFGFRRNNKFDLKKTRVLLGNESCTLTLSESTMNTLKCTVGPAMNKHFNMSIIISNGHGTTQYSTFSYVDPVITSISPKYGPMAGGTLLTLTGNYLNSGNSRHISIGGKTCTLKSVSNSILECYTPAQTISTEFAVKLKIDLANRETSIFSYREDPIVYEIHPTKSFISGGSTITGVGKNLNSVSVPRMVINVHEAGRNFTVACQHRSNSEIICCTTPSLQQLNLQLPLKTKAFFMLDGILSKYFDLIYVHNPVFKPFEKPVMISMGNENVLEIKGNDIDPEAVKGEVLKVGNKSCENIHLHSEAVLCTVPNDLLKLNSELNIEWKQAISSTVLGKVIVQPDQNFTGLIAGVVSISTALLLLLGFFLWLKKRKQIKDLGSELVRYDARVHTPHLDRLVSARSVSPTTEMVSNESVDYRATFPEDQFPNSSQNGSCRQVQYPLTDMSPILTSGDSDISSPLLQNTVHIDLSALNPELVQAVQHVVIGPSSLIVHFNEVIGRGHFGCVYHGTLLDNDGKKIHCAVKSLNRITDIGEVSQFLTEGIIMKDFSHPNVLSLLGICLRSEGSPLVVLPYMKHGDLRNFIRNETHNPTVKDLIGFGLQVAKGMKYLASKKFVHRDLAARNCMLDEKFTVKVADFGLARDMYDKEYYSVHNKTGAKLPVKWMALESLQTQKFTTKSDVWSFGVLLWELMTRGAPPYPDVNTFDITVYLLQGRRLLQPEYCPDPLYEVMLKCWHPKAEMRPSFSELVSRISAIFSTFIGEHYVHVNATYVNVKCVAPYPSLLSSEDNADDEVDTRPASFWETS

SMILES	solubility [1] [µg/mL]	IC50 [2]
N#Cc1ccc2[nH]c(-c3ccncc3)c(-c3ccc(F)cc3)c2n1	1 (≈ 3.18 µM)	
N#Cc1ccc2[nH]c(-c3ccncc3)c(-c3ccncc3)c2n1		Not Active
N#Cc1ccc2[nH]c(-c3ccccc3)c(-c3ccc(F)cc3)c2n1		Not Active
N#Cc1ccc2[nH]c(-c3ccncc3)c(-c3cnc(N)nc3)c2n1		Not Active
CS(=O)(=O)c1ccc(-c2c(-c3ccncc3)[nH]c3ccc(C#N)nc23)cc1		Not Active
